The record followed here is patent US10538532B2, “Hepatitis B antiviral agents” (ENANTA PHARMACEUTICALS, INC., priority 2016, dated 2020).

A word on the EC50: it is the concentration needed to bring the measured effect to its halfway point.

One experiment relates to HBV. As to the kind of experiment: HepAD38 antiviral assay: reduction of viral product accumulation (virion DNA by qPCR, HBsAg or HBeAg by ELISA). In kind it is cell-based, hepatitis B virus. The following applies: HepAD38 cells, five days after compound addition; concentration reducing viral product accumulation by 50% relative to no drug controls; read-out: HepAD38 EC50. The method, then:
Methods: HepAD38 cells are maintained as previously reported (Ladner et al, Antimicrob. Agents Chemother. 1997, […], 1715). Briefly, cells are passaged upon attaining confluency in DMEM/F12 media in the presence of 10% FBS, Penn/Strep, 250 μg/mL G418, and 1 ug/ml tetracycline. Novel compounds are screened by first washing cells three times with PBS to remove tetracycline, and plating in 96 well plates at 35,000 cells/well. Compounds dissolved in DMSO are then diluted 1:200 into wells containing cells. Five days after compound addition, material is harvested for analysis. For an extended 8 day analysis, cells are plated and treated as described above, but media and compound are refreshed on d2 and d5 post initial treatment.
On harvest day, virion DNA is obtained by lysing with Sidestep Lysis and Stabilization Buffer and then quantified via quantitative real time PCR. Commercially available ELISA kits are used to quantitate the viral proteins HBsAg (Alpco) or HbeAg (US Biological) by following the manufacturer's recommended protocol after diluting samples to match the linear range of their respective assays. Irrespective of readout, compound concentrations that reduce viral product accumulation in the cell lysates or supernatants by 50% relative to no drug controls (EC50) are reported; EC50 ranges are as follows: A<0.1 μM; B 0.1-0.4 μM; C>0.4 μM.
On the technique in general: In qPCR the cycle at which signal appears reflects the starting amount.
Regarding `CC(C)(C)OC(=O)N1C2CCC1CC(S(=O)(=O)c1cc(C(=O)Nc3cc(F)c(F)c(F)c3)ccc1Cl)C2` (stereo not drawn) [Example 119], the half-maximal effective concentration (EC50) is over 400 nM.

The experiment is the same for the next values; noted with them: Hepatitis B virus, HePAD38, 120 h, HepAD38 cells, five days after compound addition; concentration reducing viral product accumulation by 50% relative to no drug controls; read-out: HepAD38 EC50.
Regarding `CNC(=O)OC[C@@H]1CC2CC[C@@H](C1)[C@H]2S(=O)(=O)c1cc(C(=O)Nc2cc(F)c(F)c(F)c2)ccc1Cl` [Example 318], the EC50 was under 100 nM. On the same count and under the same terms, the same measure for `C=C1CC2CCC(C1)C2Sc1cc(C(=O)Nc2cc(F)c(F)c(F)c2)ccc1Cl` (stereo not drawn) [Example 39]: over 400 nM; for `O=C1CCCC(S(=O)(=O)c2cc(C(=O)Nc3cc(F)c(F)c(F)c3)ccc2Cl)CO1` (stereo not drawn) [Example 30]: over 400 nM; for `O=C(Nc1cc(F)c(F)c(F)c1)c1ccc(Cl)c(S(=O)(=O)[C@H]2C3CC[C@H]2C[C@](O)(Cn2ccnc2)C3)c1` [Example 314]: under 100 nM. Still for that read-out and setting: the same measure for `O=C(Nc1cc(F)c(F)c(F)c1)c1ccc(Cl)c(SCC2CCCCC2)c1` [Example 28]: over 400 nM; for `CN(C)c1ccc(C(=O)Nc2cc(F)c(F)c(F)c2)cc1S(=O)(=O)[C@H]1C2CC[C@H]1C[C@]1(CO1)C2` [Example 143]: over 400 nM; for `CC(=O)OCC1=CC2CCC(C1)[C@@H]2S(=O)(=O)c1cc(C(=O)Nc2cc(F)c(F)c(F)c2)ccc1Cl` (stereo partly drawn) [Example 140]: 100 to 400 nM.

As for `O=C(Nc1cc(F)c(F)c(F)c1)c1ccc(Cl)c(SC2CCCCC2)c1` [Example 11], the EC50 was over 400 nM.

With `O=C(Nc1cc(F)c(F)c(F)c1)c1ccc(Cl)c(S(=O)(=O)CC2CCCCC2)c1` [Example 36], the concentration giving a half-maximal response (EC50) is over 400 nM. Same read-out and setting: next, `O=C(Nc1cc(F)c(F)c(F)c1)c1ccc(Cl)c(S(=O)(=O)[C@H]2CC3CCC(C2)[C@]3(O)c2ccc(F)cn2)c1` [Example 323]: under 100 nM; `CCOC(=O)C(F)(F)S(=O)(=O)c1cc(C(=O)Nc2cc(F)c(F)c(F)c2)ccc1Cl` [Example 93]: over 400 nM. On the same count and under the same terms, next, `[N-]=[N+]=Nc1ccc(C(=O)Nc2cc(F)c(F)c(F)c2)cc1S(=O)(=O)[C@H]1C2CC[C@H]1C[C@](O)(CO)C2` [Example 148]: over 400 nM. In the case of `O=C(Nc1cc(F)c(F)c(F)c1)c1ccc(Cl)c(S(=O)(=O)Cc2cccc[n+]2[O-])c1` [Example 37], the EC50 was over 400 nM. Regarding `O=C(Nc1cc(F)c(F)c(F)c1)c1ccc(Cl)c([S+]([O-])Cc2ccncc2)c1` (stereo not drawn) [Example 47], the EC50 was over 400 nM. `COC(=O)C1CON(Cc2ccccc2)[C@@]12CC1CC[C@@H](C2)[C@H]1S(=O)(=O)c1cc(C(=O)Nc2cc(F)c(F)c(F)c2)ccc1Cl` (stereo partly drawn) [Example 211]: the half-maximal effective concentration (EC50) is over 400 nM. As to `O=C(Nc1cc(F)c(F)c(F)c1)c1ccc(Cl)c(Sc2ccccc2)c1` [Example 71], the EC50 is over 400 nM. The same measure, in the same setting: the same measure for `O=C(Nc1cc(F)c(F)c(F)c1)c1ccc(Cl)c(S(=O)(=O)[C@H]2C3CC[C@H]2C[C@@]2(CO2)C3)c1` [Example 269]: under 100 nM.

Turning to `O=C(Nc1cc(F)c(F)c(F)c1)c1ccc(Cl)c(S(=O)(=O)[C@H]2C3CC[C@H]2C[C@@](O)(C#Cc2ccccn2)C3)c1` [Example 172], the EC50 fell in the range of 100 to 400 nM.

For `O=C(Nc1cc(F)c(F)c(F)c1)c1ccc(Cl)c(S(=O)(=O)[C@H]2CC3CCC(C2)[C@H]3OC2CCCO2)c1` (stereo partly drawn) [Example 184], the EC50 is over 400 nM. Same read-out and setting: the same measure for `C[C@H](N)C(=O)OC[C@]1(O)CC2CC[C@@H](C1)[C@H]2S(=O)(=O)c1cc(C(=O)Nc2cc(F)c(F)c(F)c2)ccc1Cl` [Example 248]: under 100 nM; for `O=C(Nc1cc(F)c(F)c(F)c1)c1ccc(Cl)c(S(=O)(=O)C(CO)CC2CCOCC2)c1` (stereo not drawn) [Example 166]: 100 to 400 nM. `O=C(Nc1cc(F)c(F)c(F)c1)c1ccc(Cl)c(S(=O)(=O)C2C[C@@H](O)[C@@H](O)C2)c1` (stereo partly drawn) [Example 85]: the EC50 lay in the range of 100 to 400 nM. Turning to `CC1(C)O[C@@H]2[C@@H](CS(=O)(=O)c3cc(C(=O)Nc4cc(F)c(F)c(F)c4)ccc3Cl)OC(=O)[C@@H]2O1` [Example 100], the EC50 is over 400 nM. The same measure, in the same setting: next, `CC(=O)N1C[C@]2(OC1(C)C)C1CCC2C[C@@H](S(=O)(=O)c2cc(C(=O)Nc3cc(F)c(F)c(F)c3)ccc2Cl)C1` [Example 346]: under 100 nM; `COC(=O)C1CON(C)[C@]12CC1CC[C@@H](C2)[C@H]1S(=O)(=O)c1cc(C(=O)Nc2cc(F)c(F)c(F)c2)ccc1Cl` (stereo partly drawn) [Example 218]: over 400 nM. As for `O=C(Nc1cc(F)c(F)c(F)c1)c1ccc(Cl)c(S(=O)(=O)[C@H]2C3CC[C@H]2C[C@](O)(/C=N/OCc2ccc(F)cc2)C3)c1` [Example 232], the concentration for a half-maximal effect (EC50) was under 100 nM. As for `O=C(Nc1cc(F)c(F)c(F)c1)c1ccc(Cl)c(S(=O)(=O)[C@@H]2C3CC[C@H]2C[C@](O)(CO)C3)c1` [Example 137], the EC50 was in the range of 100 to 400 nM. The same measure, in the same setting: the same measure for `CCNC(=O)OC[C@]1(O)CC2CC[C@@H](C1)[C@H]2S(=O)(=O)c1cc(C(=O)Nc2cc(F)c(F)c(F)c2)ccc1Cl` [Example 135]: 100 to 400 nM. Same read-out and setting: next, `O=C(Nc1cc(F)c(F)c(F)c1)c1ccc(Cl)c(S(=O)(=O)[C@H]2CC3CCC(C2)[C@H]3O)c1` [Example 183]: 100 to 400 nM. Same read-out and setting: the same measure for `COc1ccc(COC[C@]2(O)CC3CC[C@@H](C2)[C@H]3S(=O)(=O)c2cc(C(=O)Nc3cc(F)c(F)c(F)c3)ccc2Cl)cc1` [Example 315]: under 100 nM; for `O=C(Nc1cc(F)c(F)c(F)c1)c1ccc(Cl)c(S(=O)(=O)[C@@H]2CC[C@H](O)C2)c1` [Example 31]: 100 to 400 nM. `O=C(Nc1cc(F)c(F)c(F)c1)c1ccc(Cl)c(S(=O)(=O)[C@H]2C3CC[C@H]2C(O)C(=O)C3)c1` (stereo partly drawn) [Example 146]: the 50% effective concentration (EC50) is under 100 nM. On to `COc1cc(NC(=O)c2ccc(Cl)c(S(=O)(=O)[C@H]3CC[C@H](O)CC3)c2)ccn1` [Example 40], for which the EC50 was over 400 nM. In the case of `COC(=O)N(C)C[C@@H]1CC2CC[C@@H](C1)[C@H]2S(=O)(=O)c1cc(C(=O)Nc2cc(F)c(F)c(F)c2)ccc1Cl` [Example 335], the EC50 was under 100 nM. In the case of `O=C(Nc1cc(F)c(F)c(F)c1)c1ccc(Cl)c([S+]([O-])C2CCC=CCC2)c1` (stereo not drawn) [Example 64], the concentration for a half-maximal effect (EC50) is over 400 nM. In the case of `O=C(Nc1cc(F)c(F)c(F)c1)c1ccc(Cl)c([S+]([O-])[C@H]2C3CC[C@H]2C[C@](O)(CO)C3)c1` (stereo partly drawn) [Example 138], the EC50 is over 400 nM. For `COC(=O)C1CON(C)[C@@]12CC1CC[C@@H](C2)[C@H]1S(=O)(=O)c1cc(C(=O)Nc2cc(F)c(F)c(F)c2)ccc1Cl` (stereo partly drawn) [Example 217], the EC50 was over 400 nM. The same measure, in the same setting: the same measure for `O=C(Nc1cc(F)c(F)c(F)c1)c1ccc(Cl)c(S(=O)(=O)C2CC[C@@H](O)[C@@H](O)CC2)c1` (stereo partly drawn) [Example 83]: 100 to 400 nM; for `O=C(Nc1cc(F)c(F)c(F)c1)c1ccc(Cl)c(S(=O)(=O)[C@H]2C3CC[C@H]2[C@@H](CO)C(=O)C3)c1` [Example 163]: 100 to 400 nM. Regarding `O=C(Nc1ccc(F)c(F)c1)c1ccc(Cl)c(S(=O)(=O)[C@H]2CC3CCC(C2)[C@H]3O)c1` [Example 354], the EC50 fell in the range of 100 to 400 nM. Still for that read-out and setting: the same measure for `O=C(Nc1cc(F)c(F)c(F)c1)c1ccc(Cl)c(S(=O)(=O)[C@H]2C[C@H]3CC[C@@H](C2)O3)c1` [Example 357]: 100 to 400 nM; for `O=C(Nc1cc(F)c(F)c(F)c1)c1ccc(Cl)c(S(=O)(=O)C[C@H]2OC(=O)[C@H](O)[C@@H]2O)c1` [Example 101]: over 400 nM; for `CC1(C)OC[C@@]2(CC3CC[C@@H](C2)[C@H]3S(=O)(=O)c2cc(C(=O)Nc3ccc(F)c(F)c3)ccc2Cl)O1` [Example 126]: 100 to 400 nM. Still for that read-out and setting: the same measure for `O=C(Nc1cc(F)c(F)c(F)c1)c1ccc(Cl)c(S(=O)(=O)[C@@H]2C3C=C(CO)CC2CC3)c1` (stereo partly drawn) [Example 141]: 100 to 400 nM. Still for that read-out and setting: next, `CCOC(=O)CS(=O)(=O)c1cc(C(=O)Nc2cc(F)c(F)c(F)c2)ccc1Cl` [Example 77]: over 400 nM. Take `CO/N=C/[C@]1(O)CC2CC[C@@H](C1)[C@H]2S(=O)(=O)c1cc(C(=O)Nc2cc(F)c(F)c(F)c2)ccc1Cl` [Example 201]: the EC50 was under 100 nM. Same read-out and setting: the same measure for `COC(=O)NC[C@@H]1CC2CC[C@@H](C1)[C@H]2S(=O)(=O)c1cc(C(=O)Nc2cc(F)c(F)c(F)c2)ccc1Cl` [Example 334]: under 100 nM; for `O=C(Nc1cc(F)c(F)c(F)c1)c1ccc(Cl)c(S(=O)(=O)[C@H]2C3CC[C@H]2C[C@](O)(/C=N/OCc2c(F)c(F)c(F)c(F)c2F)C3)c1` [Example 235]: 100 to 400 nM.

With `CC1(C)OC[C@@]2(CC3CC[C@@H](C2)[C@H]3S(=O)(=O)c2cc(C(=O)Nc3cc(F)c(F)c(F)c3)ccc2Cl)O1` [Example 128], the 50% effective concentration (EC50) was in the range of 100 to 400 nM.

Turning to `O=C(Nc1cc(F)c(F)c(F)c1)c1ccc(Cl)c(S(=O)(=O)C2CCN(c3ccccn3)CC2)c1` [Example 95], the EC50 was over 400 nM.

With `CN(C)c1ccc(C(=O)Nc2cc(F)c(F)c(F)c2)cc1S(=O)(=O)[C@H]1C2CC[C@H]1C[C@](O)(COS(C)(=O)=O)C2` [Example 144], the EC50 was over 400 nM. The same measure, in the same setting: the same measure for `O=C(Nc1cc(F)c(F)c(F)c1)c1ccc(Cl)c(SCc2ccncc2)c1` [Example 38]: over 400 nM. Still for that read-out and setting: next, `O=C(Nc1cc(F)c(F)c(F)c1)c1ccc(Cl)c(S(=O)(=O)[C@H]2CC3CCC(C2)[C@@]3(O)Cn2cccn2)c1` [Example 261]: over 400 nM.
